These results are taken from ChEMBL document CHEMBL3046116, “QSAR and pharmacophore analysis of thiosemicarbazone derivatives as ribonucleotide reductase inhibitors” (Med Chem Res, 2012).

The target of the assay is T1, Ribonucleoside-diphosphate reductase RR1 (Homo sapiens, UniProt P23921+P31350+Q7LG56).
T1 sequence (P23921 whole entry): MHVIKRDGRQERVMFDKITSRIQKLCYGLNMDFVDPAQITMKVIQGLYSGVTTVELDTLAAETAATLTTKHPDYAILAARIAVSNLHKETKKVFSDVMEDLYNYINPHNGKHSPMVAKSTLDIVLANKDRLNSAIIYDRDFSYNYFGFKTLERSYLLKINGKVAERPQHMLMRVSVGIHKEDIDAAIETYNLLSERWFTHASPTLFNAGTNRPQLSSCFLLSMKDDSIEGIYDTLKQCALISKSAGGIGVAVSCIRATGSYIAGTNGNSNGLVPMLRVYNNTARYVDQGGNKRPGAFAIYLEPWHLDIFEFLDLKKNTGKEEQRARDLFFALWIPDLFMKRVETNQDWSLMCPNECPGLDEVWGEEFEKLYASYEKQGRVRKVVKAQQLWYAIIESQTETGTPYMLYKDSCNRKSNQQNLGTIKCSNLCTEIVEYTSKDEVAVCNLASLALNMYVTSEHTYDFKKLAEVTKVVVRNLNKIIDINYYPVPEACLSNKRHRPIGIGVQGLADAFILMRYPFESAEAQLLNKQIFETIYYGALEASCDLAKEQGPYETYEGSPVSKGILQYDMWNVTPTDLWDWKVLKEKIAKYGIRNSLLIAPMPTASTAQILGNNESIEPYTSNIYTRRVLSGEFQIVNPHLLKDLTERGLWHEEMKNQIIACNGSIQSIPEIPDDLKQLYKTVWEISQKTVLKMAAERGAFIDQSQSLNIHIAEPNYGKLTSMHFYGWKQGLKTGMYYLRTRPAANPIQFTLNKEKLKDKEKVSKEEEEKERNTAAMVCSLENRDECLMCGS
T1 sequence (Q7LG56 whole entry): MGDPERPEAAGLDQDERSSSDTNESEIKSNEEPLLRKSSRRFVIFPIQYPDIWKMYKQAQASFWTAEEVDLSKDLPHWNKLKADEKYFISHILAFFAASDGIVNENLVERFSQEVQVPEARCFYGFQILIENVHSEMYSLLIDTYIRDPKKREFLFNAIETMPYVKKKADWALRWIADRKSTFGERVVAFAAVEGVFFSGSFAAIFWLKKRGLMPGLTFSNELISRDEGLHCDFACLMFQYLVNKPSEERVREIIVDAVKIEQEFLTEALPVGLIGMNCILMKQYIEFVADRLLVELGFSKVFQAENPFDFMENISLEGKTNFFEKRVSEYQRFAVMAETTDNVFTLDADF
T1 sequence (P31350 whole entry): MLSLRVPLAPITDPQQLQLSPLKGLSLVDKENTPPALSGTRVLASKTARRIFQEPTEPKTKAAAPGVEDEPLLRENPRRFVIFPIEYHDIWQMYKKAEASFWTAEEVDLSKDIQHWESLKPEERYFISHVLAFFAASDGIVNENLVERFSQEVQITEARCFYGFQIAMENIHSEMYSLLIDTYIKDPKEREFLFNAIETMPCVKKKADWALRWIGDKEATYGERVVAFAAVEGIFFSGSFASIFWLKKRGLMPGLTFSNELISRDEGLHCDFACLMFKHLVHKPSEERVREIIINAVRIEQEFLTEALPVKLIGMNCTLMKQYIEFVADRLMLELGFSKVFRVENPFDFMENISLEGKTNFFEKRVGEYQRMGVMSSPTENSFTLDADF
Kind of assay: Inhibition of N-terminal 6xHis-tagged Homo sapiens (human) recombinant ribonucleotide reductase M2/M1 expressed in Escherichia coli BL21 (DE3) using [3H]CDP as substrate after 30 min.
Turning to `Cc1ccc(NC(=S)N/N=C/c2ccc(O)cc2)cc1`, the IC50 was 14.2 µM.
Next, `Oc1ccc(/C=N/NC(=S)Nc2ccccc2O)cc1`: 29.3 µM; `Cc1cccc(NC(=S)N/N=C/c2ccc(O)cc2)c1`: 30.4 µM.
To `Oc1ccc(/C=N/NC(=S)Nc2ccc(O)cc2)cc1` belongs 43.3 µM; to `COc1ccccc1NC(=S)N/N=C/c1ccc(O)cc1`, 41.6 µM.
To `O=[N+]([O-])c1ccc(NC(=S)N/N=C/c2ccc(O)cc2)cc1` belongs 45.1 µM.
With `Cc1ccccc1NC(=S)N/N=C/c1ccc(O)cc1`, the IC50 was 36.5 µM.
To `Oc1ccc(/C=N/NC(=S)Nc2cccc(O)c2)cc1` belongs 28.6 µM.
Next, `Oc1ccc(/C=N/NC(=S)Nc2ccc(Cl)cc2)cc1`: 287 µM; `Oc1ccc(/C=N/NC(=S)Nc2ccccc2)cc1`: 242 µM.
To `O=[N+]([O-])c1ccccc1NC(=S)N/N=C/c1ccc(O)cc1` belongs 39.3 µM.
On to `Oc1ccc(/C=N/NC(=S)Nc2ccccc2Cl)cc1`, for which the IC50 was 46.8 µM.
As for `Oc1ccc(/C=N/NC(=S)Nc2cccc(Cl)c2)cc1`, the IC50 was 29.3 µM.

As a reminder, the IC50 is the concentration needed to halve the response being measured.
